Results: ChEMBL document CHEMBL1201862, “PubChem BioAssay data set” (2004)
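Following 48 hours of exposure in 96-well plates, responses at five concentrations were used to interpolate endpoints linearly. GI50 is the concentration that inhibits growth by half.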 Active and inactive are the calls of the source. Rule as the data show it: active = GI50 up to about 1.1 µM and inactive = higher.

What was measured:
Assay in all cases: inhibition of tumour cell growth, NCI panel, 48 h
A549 = test system: A549
OVCAR-8 = test system: OVCAR-8
SK-OV-3 = test system: SK-OV-3
HT-29 = test system: HT-29
HOP-62 = test system: HOP-62
LOX IMVI = test system: LOX IMVI
SK-MEL-5 = test system: SK-MEL-5
K562 = test system: K562
OVCAR-5 = test system: OVCAR-5
EKVX = test system: EKVX
UACC-257 = test system: UACC-257
CAKI-1 = test system: CAKI-1
NCI-H522 = test system: NCI-H522
M14 = test system: M14
SF-539 = test system: SF-539
OVCAR-4 = test system: OVCAR-4
SNB-75 = test system: SNB-75
RPMI-8226 = test system: RPMI-8226

| Compound | GI50 (A549) | GI50 (OVCAR-8) | GI50 (SK-OV-3) | GI50 (HT-29) | GI50 (HOP-62) | GI50 (LOX IMVI) | GI50 (SK-MEL-5) | GI50 (K562) | GI50 (OVCAR-5) | GI50 (EKVX) | GI50 (UACC-257) | GI50 (CAKI-1) | GI50 (NCI-H522) | GI50 (M14) | GI50 (SF-539) | GI50 (OVCAR-4) | GI50 (SNB-75) | GI50 (RPMI-8226) |
| --- | --- | --- | --- | --- | --- | --- | --- | --- | --- | --- | --- | --- | --- | --- | --- | --- | --- | --- |
| CCO/N=[N+](\[O-])N(CC)CC | > 100 µM (inactive) | > 100 µM (inactive) | > 100 µM (inactive) | > 100 µM (inactive) | > 100 µM (inactive) | > 100 µM (inactive) | > 100 µM (inactive) | > 100 µM (inactive) | > 100 µM (inactive) | > 100 µM (inactive) | > 100 µM (inactive) | > 100 µM (inactive) | > 100 µM (inactive) | > 100 µM (inactive) | > 100 µM (inactive) |  |  |  |
| O=C(N/N=C(\c1nc2ccc(Cl)cc2nc1O)C(O)c1ccccc1Cl)c1ccncc1 (stereo unspecified) | > 100 µM (inactive) |  | > 100 µM (inactive) | > 100 µM (inactive) |  | > 100 µM (inactive) | > 100 µM (inactive) | > 100 µM (inactive) | > 100 µM (inactive) | > 100 µM (inactive) | > 100 µM (inactive) | > 100 µM (inactive) | > 100 µM (inactive) | > 100 µM (inactive) | > 100 µM (inactive) | > 100 µM (inactive) | > 100 µM (inactive) |  |
| BrC/C=C/C[P+](c1ccccc1)(c1ccccc1)c1ccccc1 | 7.87 µM (inactive) | 3.91 µM (inactive) | 86.5 µM (inactive) |  | 19.6 µM (inactive) | 10.4 µM (inactive) | 11.1 µM (inactive) | 2.43 µM (inactive) | 31 µM (inactive) |  | 8.57 µM (inactive) |  | 12.4 µM (inactive) | 13.7 µM (inactive) | 1.52 µM (inactive) | 41.1 µM (inactive) | 19.8 µM (inactive) | 0.927 µM (active) |
| CC(=O)NC1=C(NC(C)(C)C)C(=O)c2ccccc2C1=O | 48.1 µM (inactive) | 20.3 µM (inactive) | 54 µM (inactive) | 23.2 µM (inactive) | 49.4 µM (inactive) | 16.7 µM (inactive) | 18.2 µM (inactive) | 7.19 µM (inactive) | 48.1 µM (inactive) | 28.2 µM (inactive) | 15.9 µM (inactive) | 16.1 µM (inactive) |  | 17.1 µM (inactive) | 15.8 µM (inactive) | 20.1 µM (inactive) | 13.6 µM (inactive) | 11.7 µM (inactive) |
| Cc1cccc(-n2c(=S)[nH]c3c(sc(=O)n3-c3ccccc3C)c2=O)c1 | > 100 µM (inactive) | > 100 µM (inactive) | > 100 µM (inactive) | > 100 µM (inactive) | > 100 µM (inactive) |  | > 100 µM (inactive) | > 100 µM (inactive) | > 100 µM (inactive) | > 100 µM (inactive) | > 100 µM (inactive) | > 100 µM (inactive) | > 100 µM (inactive) | > 100 µM (inactive) | > 100 µM (inactive) | > 100 µM (inactive) | > 100 µM (inactive) | > 100 µM (inactive) |
| CN(C)CCC1(C2=CCCC2)CC/C(=C\c2ccccc2Cl)C1=O (stereo unspecified) | 13.8 µM (inactive) | 15 µM (inactive) |  | 6.44 µM (inactive) |  |  | 12.8 µM (inactive) | 3.75 µM (inactive) | 15.7 µM (inactive) | 15.6 µM (inactive) | 14.8 µM (inactive) |  |  | 12.1 µM (inactive) | 15.2 µM (inactive) | 11.9 µM (inactive) |  | 18.3 µM (inactive) |
| Nc1n[n+](-c2ccccc2)no1 | 39.6 µM (inactive) | 80 µM (inactive) | > 100 µM (inactive) | 42.5 µM (inactive) | 31.6 µM (inactive) | 42 µM (inactive) | 52.7 µM (inactive) | 4.85 µM (inactive) | 40.7 µM (inactive) | > 100 µM (inactive) | 25.9 µM (inactive) | 24.7 µM (inactive) | 41.7 µM (inactive) | 32.7 µM (inactive) | 51.4 µM (inactive) | > 100 µM (inactive) |  | 26.6 µM (inactive) |
| Cc1nc(-c2cccnc2)sc1C(=O)/C=C/c1cccc([N+](=O)[O-])c1 | > 100 µM (inactive) | > 100 µM (inactive) | > 100 µM (inactive) | > 100 µM (inactive) | > 100 µM (inactive) | > 100 µM (inactive) | > 100 µM (inactive) | > 100 µM (inactive) | > 100 µM (inactive) | > 100 µM (inactive) | > 100 µM (inactive) | > 100 µM (inactive) | > 100 µM (inactive) |  | > 100 µM (inactive) |  | > 100 µM (inactive) | > 100 µM (inactive) |
| COC(=O)/C(=N/NC(C)(C)C)C(C(=O)OC)C(=O)C(=O)Nc1nc2ccc([N+](=O)[O-])cc2s1 (stereo unspecified) | > 100 µM (inactive) | > 100 µM (inactive) | > 100 µM (inactive) | > 100 µM (inactive) | > 100 µM (inactive) | > 100 µM (inactive) | > 100 µM (inactive) | > 100 µM (inactive) | > 100 µM (inactive) | > 100 µM (inactive) | > 100 µM (inactive) | > 100 µM (inactive) | > 100 µM (inactive) | > 100 µM (inactive) | > 100 µM (inactive) | > 100 µM (inactive) |  | > 100 µM (inactive) |
| COc1cc(OC)c([C@@H]2OC(=O)C3C2C(=O)O[C@H]3c2cc(OC)c(OC)cc2OC)cc1OC (stereo partly specified) | > 100 µM (inactive) | > 100 µM (inactive) | > 100 µM (inactive) | > 100 µM (inactive) | > 100 µM (inactive) |  |  | > 100 µM (inactive) |  | > 100 µM (inactive) | > 100 µM (inactive) | > 100 µM (inactive) |  | > 100 µM (inactive) | > 100 µM (inactive) | 45.4 µM (inactive) | > 100 µM (inactive) | > 100 µM (inactive) |
| O=S1(=O)OCCOS(=O)(=O)C1Cl | > 100 µM (inactive) | > 100 µM (inactive) | > 100 µM (inactive) | > 100 µM (inactive) | > 100 µM (inactive) |  | > 100 µM (inactive) | > 100 µM (inactive) |  | > 100 µM (inactive) | > 100 µM (inactive) | > 100 µM (inactive) | > 100 µM (inactive) | > 100 µM (inactive) | > 100 µM (inactive) | > 100 µM (inactive) | > 100 µM (inactive) | > 100 µM (inactive) |
| C1=CC=C2NCCSCC/N=C3/C=CC=CC=C3NCCSCC/N=C\2C=C1 | > 100 µM (inactive) | > 100 µM (inactive) | > 100 µM (inactive) | > 100 µM (inactive) | > 100 µM (inactive) | > 100 µM (inactive) | > 100 µM (inactive) | > 100 µM (inactive) | > 100 µM (inactive) | > 100 µM (inactive) | > 100 µM (inactive) | > 100 µM (inactive) | > 100 µM (inactive) | > 100 µM (inactive) |  | > 100 µM (inactive) | > 100 µM (inactive) | > 100 µM (inactive) |
| COC(=O)CC(C(C(=O)OCc1ccccc1)C(C)O)N1C(=O)OCC1c1ccccc1 (stereo unspecified) | 44.8 µM (inactive) | 91.6 µM (inactive) |  | > 100 µM (inactive) | > 100 µM (inactive) | > 100 µM (inactive) | 42.3 µM (inactive) | 34.4 µM (inactive) |  | 62.1 µM (inactive) | 75.7 µM (inactive) |  |  | > 100 µM (inactive) | > 100 µM (inactive) | 84.1 µM (inactive) | 20 µM (inactive) | 27.6 µM (inactive) |
| C=CCCC(OCOCCOC)c1cc(C)c(O[Si](C)(C)C(C)(C)C)c(C)c1 (stereo unspecified) | 16.4 µM (inactive) | 19.3 µM (inactive) | 25.4 µM (inactive) |  | 18.7 µM (inactive) | 13 µM (inactive) | 10.1 µM (inactive) | 8.05 µM (inactive) | 17 µM (inactive) | 32.2 µM (inactive) | 4.58 µM (inactive) |  | 11.8 µM (inactive) | 34.4 µM (inactive) | 18.4 µM (inactive) |  | 15.6 µM (inactive) | 4.81 µM (inactive) |
| O=C1C(c2ccccc2)=[N+]([O-])c2cc([N+](=O)[O-])ccc21 | 32 µM (inactive) | 16.4 µM (inactive) | > 100 µM (inactive) | 21.9 µM (inactive) | > 100 µM (inactive) | 14.3 µM (inactive) | 19.3 µM (inactive) | 22.8 µM (inactive) | 69.8 µM (inactive) | 17.4 µM (inactive) | 18.5 µM (inactive) |  | 15.3 µM (inactive) | > 10 µM (inactive) | 25.5 µM (inactive) |  | 41.9 µM (inactive) | 22.8 µM (inactive) |
| COC(=O)C(C#N)C1NC(=O)c2ccccc21 (stereo unspecified) | > 100 µM (inactive) | > 100 µM (inactive) | > 100 µM (inactive) | > 100 µM (inactive) | > 100 µM (inactive) | > 100 µM (inactive) | > 100 µM (inactive) | > 100 µM (inactive) | > 100 µM (inactive) | > 100 µM (inactive) | > 100 µM (inactive) |  | > 100 µM (inactive) | > 100 µM (inactive) | > 100 µM (inactive) | > 100 µM (inactive) | 9.71 µM (inactive) | > 100 µM (inactive) |
| CN(C)CC1(C)CC/C(=C\c2ccc(Cl)cc2)C1=O (stereo unspecified) | 66.8 µM (inactive) | 40.1 µM (inactive) |  | 44.2 µM (inactive) | > 100 µM (inactive) | 31.3 µM (inactive) | 39 µM (inactive) | 40.6 µM (inactive) | > 100 µM (inactive) |  | 44.7 µM (inactive) | 22.7 µM (inactive) | 17.7 µM (inactive) | 43.2 µM (inactive) | 46.5 µM (inactive) | 35.2 µM (inactive) | 45 µM (inactive) | 19.1 µM (inactive) |
